# Assays:
# Type in all cases: functional
# Klebsiella pneumoniae = test: Antibacterial activity against Klebsiella pneumoniae ATCC 31488 after 24 hrs by broth micro dilution assay; details: ATCC 31488, 24 h
# Staphylococcus aureus = test: Antibacterial activity against Staphylococcus aureus ATCC 2937 after 24 hrs by broth micro dilution assay; details: ATCC 2937, 24 h
# Fusarium oxysporum = test: Antifungal activity against Fusarium oxysporum by food poison technique; details: read-out: ED50 (the source's name)
# Aspergillus niger = test: Antifungal activity against Aspergillus niger by food poison technique; details: read-out: ED50 (the source's name)
# Pseudomonas aeruginosa = test: Antibacterial activity against Pseudomonas aeruginosa ATCC 9027 after 24 hrs by broth micro dilution assay; details: ATCC 9027, 24 h
# Bacillus subtilis = test: Antibacterial activity against Bacillus subtilis ATCC 12711 after 24 hrs by broth micro dilution assay; details: ATCC 12711, 24 h
# Escherichia coli = test: Antibacterial activity against Escherichia coli ATCC 8739 after 24 hrs by broth micro dilution assay; details: ATCC 8739, 24 h
Structure (SMILES),MIC90 (Klebsiella pneumoniae) [µg/mL],MIC90 (Staphylococcus aureus) [µg/mL],EC50 (Fusarium oxysporum) [µg/mL],EC50 (Aspergillus niger) [µg/mL],MIC90 (Pseudomonas aeruginosa) [µg/mL],MIC90 (Bacillus subtilis) [µg/mL],MIC90 (Escherichia coli) [µg/mL]
CCn1cc(-c2nnc(S)n2/N=C/c2ccc(N(C)C)cc2)c(=O)c2ccc(C)nc21,63,125,104,101,16,16,63
CCn1cc(-c2nnc(S)n2/N=C/c2ccc(SC)cc2)c(=O)c2ccc(C)nc21,63,250,104,251,63,125,250
CCn1cc(-c2nnc(S)n2/N=C/c2ccc(Cl)cc2Cl)c(=O)c2ccc(C)nc21,250,125,103,502,63,125,250
CCn1cc(-c2nnc(S)n2/N=C/c2c(Cl)cccc2Cl)c(=O)c2ccc(C)nc21,125,125,112,101,63,31,16
CCn1cc(-c2nnc3sc(-c4ccccc4)nn23)c(=O)c2ccc(C)nc21,125,63,103,79.6,63,125,63
CCn1cc(-c2nnc3sc(-c4ccccc4Cl)nn23)c(=O)c2ccc(C)nc21,16,16,86.6,75.5,16,16,16
CCn1cc(-c2nnc3sc(-c4cccc(Cl)c4)nn23)c(=O)c2ccc(C)nc21,63,63,103,144,63,31,63
CCn1cc(-c2nnc3sc(-c4ccc(Cl)cc4)nn23)c(=O)c2ccc(C)nc21,125,63,121,514,125,63,63
CCn1cc(-c2nnc3sc(-c4cccc([N+](=O)[O-])c4)nn23)c(=O)c2ccc(C)nc21,125,125,148,71,63,125,125
CCn1cc(-c2nnc3sc(-c4cccc(Cl)c4Cl)nn23)c(=O)c2ccc(C)nc21,63,125,96.9,109,63,63,31
CCn1cc(-c2nnc3sc(S)nn23)c(=O)c2ccc(C)nc21,63,250,267,92.7,31,125,63
CCn1cc(-c2nnc(S)n2NC(C)=O)c(=O)c2ccc(C)nc21,31,63,166,111,250,63,63
CCn1cc(-c2nnc(S)n2NC(=O)c2ccccc2)c(=O)c2ccc(C)nc21,63,63,110,88.5,63,63,63
CCn1cc(-c2nnc3n2N=C(c2ccccc2)CS3)c(=O)c2ccc(C)nc21,63,63,144,148,125,125,125
CCn1cc(-c2nnc3sc(=O)c(=O)[nH]n23)c(=O)c2ccc(C)nc21,63,250,164,348,125,125,125
CCn1cc(-c2nnc(S)[nH]2)c(=O)c2ccc(C)nc21,63,63,111,76,125,31,63
O=C(O)c1cn(C2CC2)c2cc(N3CCNCC3)c(F)cc2c1=O [CIPROFLOXACIN],2.5,10,–,–,1.25,12.5,12.5
CN[C@@H]1[C@H](O[C@H]2[C@H](O[C@H]3[C@H](O)[C@@H](O)[C@H](N=C(N)N)[C@@H](O)[C@@H]3N=C(N)N)O[C@@H](C)[C@]2(O)C=O)O[C@@H](CO)[C@H](O)[C@H]1O [STREPTOMYCIN],2,15,–,–,4,5,13

# From ChEMBL document CHEMBL1821658, “Synthesis, antimicrobial evaluation and QSAR analysis of novel nalidixic acid based 1,2,4-triazole derivatives” (2011)
